The text below walks through data of patent publication US11851449B2, “Heterocyclic amide compounds having an RORvt inhibitory action” (TAKEDA PHARMACEUTICAL COMPANY LIMITED, priority 2013, dated 2023).

The structures appear in SMILES notation. Like-named read-outs stand apart in the source and are kept apart here.

The target in assay [1] is T1, RORγt (Homo sapiens, UniProt P51449).
T1 sequence (P51449 1-497 isoform P51449-2): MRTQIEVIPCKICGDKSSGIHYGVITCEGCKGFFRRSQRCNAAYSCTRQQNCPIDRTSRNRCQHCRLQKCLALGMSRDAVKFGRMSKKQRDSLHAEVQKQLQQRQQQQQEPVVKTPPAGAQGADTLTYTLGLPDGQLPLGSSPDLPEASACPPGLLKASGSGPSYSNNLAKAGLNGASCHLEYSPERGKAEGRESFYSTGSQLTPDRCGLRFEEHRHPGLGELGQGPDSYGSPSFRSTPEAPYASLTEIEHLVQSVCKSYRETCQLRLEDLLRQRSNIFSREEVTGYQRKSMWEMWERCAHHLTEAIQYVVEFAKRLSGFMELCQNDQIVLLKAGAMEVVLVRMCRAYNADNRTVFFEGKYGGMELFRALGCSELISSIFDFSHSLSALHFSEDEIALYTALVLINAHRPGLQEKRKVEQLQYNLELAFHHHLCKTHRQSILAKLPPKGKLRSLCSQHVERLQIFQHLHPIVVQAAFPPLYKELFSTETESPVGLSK
Put plainly: Cofactor recruitment test (Alpha Screen, biotinylated SRC-1 peptide). As to conditions: read-out: signal value inhibitory rate (%) at test compound 1 μM. The class given is biochemical. On the procedure:
Cofactor Recruitment Test
Cofactor recruitment test was performed by Alpha Screen (Histidine Detection Kit, PerkinElmer) method. First, a test compound was diluted with an assay buffer (50 mM Tris-HCl (pH 7.5), 50 mM KCl, 1 mM DTT, 0.1% BSA) and added to a 384 well plate by 5 μL. […] The mixture was stood in a dark place for 1 hr, and the signal value was measured by Envision (PerkinElmer).

Assay [2] concerns the target T1, RORγt. Put plainly: RORγt binding test (TR-FRET, fluorescent-labeled cholesterol). As to conditions: read-out: binding inhibitory rate (%) of fluorescent-labeled cholesterol to RORγt at test compound 1 μM. The method, then: The binding activity of the test compound to RORγt was measured by a time resolved fluorescence resonance energy transfer method (TR-FRET) utilizing histidine-tagged RORγt, fluorescent-labeled cholesterol (BODIPY-cholesterol, AVIVA), and terbium-labeled anti-histidine tag antibody (Invitrogen). First, a test compound diluted with an assay buffer (20 mM Tris-HCl (pH 7.5), 100 mM NaCl, 1 mM DTT, 0.1% BSA) was added to a 384 well plate by 3 μL. Then, RORγt diluted with an assay buffer to 240 nM was added by 3 μL, after which fluorescent-labeled cholesterol diluted with the assay buffer to 12 μM was added by 3 μL, and the mixture was stood at room temperature for 20 min. Thereafter, a terbium-labeled anti-histidine tag antibody diluted with the assay buffer to 8 nM was added by 3 μL. The mixture was stood at room temperature for 20 min, and fluorescence intensity (excitation wavelength 320 nm, fluorescence wavelength 520 nm, delay time 100 microseconds) was measured by Envision (PerkinElmer).

Assay [3] addresses T1, RORγt. Put plainly: Jurkat reporter test (human IL-17 ROR response element luciferase reporter). The class given is cell-based. Conditions: read-out: luminescence level inhibitory rate (%) at test compound 3 μM. The method, then:
The Jurkat cells used for the reporter test were cultured in a culture medium (RPMI (Invitrogen), 10% FCS (AusGeneX), 100 U/mL penicillin, 100 μg/mL streptomycin). On the day of the test, 4×10^7 cells were recovered by a centrifugal operation (1000 rpm, 5 min.) and suspended in PBS (phosphate buffered saline) (Invitrogen). Thereafter, the cells were recovered again by a centrifugal operation, and suspended in 2 mL of R buffer (NEON transfection kit, Invitrogen). […] Gene transfer was performed by Electroporation apparatus (NEON, Invitrogen) under the conditions of pulse voltage 1350 V, interval 10 milliseconds, number of times 3. The cells after gene transfer were suspended in 40 mL of a reaction medium (RPMI, 10% Lipid reduced FCS (HyClone), 10 mM HEPES (pH 7.5), 100 U/mL penicillin, 100 μg/mL streptomycin, 5 μM lovastatin), and plated in a 96 well plate by 90 μL. A test compound diluted with the reaction medium was added by 10 μL, and the cells were cultured overnight in an incubator. Bright-Glo (Promega) was added by 100 μL, and the mixture was stirred at room temperature for 10 min, and the luminescence level was measured by Envision (PerkinElmer).

[4] abbreviates: test compound 3 μM, Jurkat cells.

Turning to `COCc1ccc([C@@H](NC(=O)Cc2cc(O)no2)C(=O)Nc2cc(F)c(C(C)(C)C)c(F)c2)cc1` [Example 114, (2R)—N-(4-tert-butyl-3,5-difluorophenyl)-2-(((3-hydroxy-1,2-oxazol-5-yl)acetyl)amino)-2-(4-(methoxymethyl)phenyl)acetamide], the inhibition at 1 µM at RORγt [1] was 90.1%; on RORγt [2] it was 101%. Also, at RORγt [3] (setting [4]), the inhibition at 3 µM worked out at 102%.
Turning to `COCc1ccc([C@@H](NC(=O)Cn2ccc(=O)[nH]c2=O)C(=O)Nc2ccc(C(C)(C)C)c(F)c2)cc1` [Example 116, (2R)—N-(4-tert-butyl-3-fluorophenyl)-2-(((2,4-dioxo-3,4-dihydropyrimidin-1(2H)-yl)acetyl)amino)-2-(4-(methoxymethyl)phenyl)acetamide], the inhibition at 1 µM was 76.6% on RORγt [1] and 103% on RORγt [2]. Also, the inhibition at 3 µM at RORγt [3] (setting [4]) was found to be 99.8%.
Turning to `COCc1ccc(C(NC(=O)[C@@H]2CNC(=O)C2)C(=O)Nc2ccc(C(C)(C)C)c(Cl)c2)cc1` (stereo partly drawn) [Example 104, (3S)—N-(2-((4-tert-butyl-3-chlorophenyl)amino)-1-(4-(methoxymethyl)phenyl)-2-oxoethyl)-5-oxopyrrolidine-3-carboxamide], the inhibition at 1 µM at RORγt [1] stood at 74.9%; on RORγt [2], 101%. Moreover, the inhibition at 3 µM on RORγt [3] (setting [4]) was found to be 96.1%.
In the case of `COc1ccc(C(NC(=O)C2CNC(=O)C2)C(=O)Nc2cc(F)c([Si](C)(C)C)cc2F)cc1` (stereo not drawn) [Example 42, N-(2-((2,5-difluoro-4-(trimethylsilyl)phenyl)amino)-1-(4-methoxyphenyl)-2-oxoethyl)-5-oxopyrrolidine-3-carboxamide], the inhibition at 1 µM at RORγt [1] was determined as 88.5%; on RORγt [2], 102%. On RORγt [3] (Jurkat), the inhibition at 3 µM amounted to 99.1%.
As to `COCc1ccc([C@@H](NC(=O)C2CCN(C(C)=O)CC2)C(=O)Nc2ccc([Si](C)(C)C)c(F)c2)cc1` [Example 87, 1-acetyl-N-((1R)-2-((3-fluoro-4-(trimethylsilyl)phenyl)amino)-1-(4-(methoxymethyl)phenyl)-2-oxoethyl)piperidine-4-carboxamide], the inhibition at 1 µM was 83.9% at RORγt [1] and 102% on RORγt [2]. For the same compound, the inhibition at 3 µM at RORγt [3] (Jurkat) was 98.2%.
For the compound `C[Si](C)(C)c1c(F)cc(NC(=O)[C@H](NC(=O)c2cc(O)no2)C2CCOCC2)cc1F` [Example 3, N-((1R)-2-((3,5-difluoro-4-(trimethylsilyl)phenyl)amino)-2-oxo-1-(tetrahydro-2H-pyran-4-yl)ethyl)-3-hydroxy-1,2-oxazole-5-carboxamide], the inhibition at 1 µM worked out at 72.3% at RORγt [1] and 100% on RORγt [2]. Also, the inhibition at 3 µM on RORγt [3] (Jurkat) turned out to be 98.4%.
Turning to `COCc1ccc(C(NC(=O)Cc2nnc(C)o2)C(=O)Nc2cc(F)c([Si](C)(C)C)cc2F)cc1` (stereo not drawn) [Example 44, N-(2,5-difluoro-4-(trimethylsilyl)phenyl)-2-(4-(methoxymethyl)phenyl)-2-(((5-methyl-1,3,4-oxadiazol-2-yl)acetyl)amino)acetamide], the inhibition at 1 µM on RORγt [1] came out at 95.7%; at RORγt [2] it was 102%. Besides, at RORγt [3] (Jurkat), the inhibition at 3 µM was 102%.
For `COc1ccc(C(NC(=O)Cn2cnc3ccccc32)C(=O)Nc2ccc([Si](C)(C)C)cc2)cc1` (stereo not drawn) [Example 289, 2-((1H-benzimidazol-1-ylacetyl)amino)-2-(4-methoxyphenyl)-N-(4-(trimethylsilyl)phenyl)acetamide], the values for the inhibition at 1 µM on RORγt [1] and on RORγt [2] were 87.2% and 99.6%, respectively. Besides, the inhibition at 3 µM on RORγt [3] (Jurkat) was 100%.
Take `COCc1ccc(C(NC(=O)C2CNC(=O)C2)C(=O)Nc2ccc([Si](C)(C)C)c(F)c2)cc1` (stereo not drawn) [Example 32, N-(2-((3-fluoro-4-(trimethylsilyl)phenyl)amino)-1-(4-(methoxymethyl)phenyl)-2-oxoethyl)-5-oxopyrrolidine-3-carboxamide]: the inhibition at 1 µM at RORγt [1] was determined as 95.6%; at RORγt [2], 95.2%. The inhibition at 3 µM at RORγt [3] (Jurkat) stood at 99.1%.
With `COCc1ccc([C@@H](NC(=O)Cc2cc(O)no2)C(=O)Nc2ccc([Si](C)(C)C)c(F)c2)cc1` [Example 75, (2R)—N-(3-fluoro-4-(trimethylsilyl)phenyl)-2-(((3-hydroxy-1,2-oxazol-5-yl)acetyl)amino)-2-(4-(methoxymethyl)phenyl)acetamide], the inhibition at 1 µM at RORγt [1] is 95.8%; on RORγt [2], 102%. Besides, the inhibition at 3 µM at RORγt [3] (Jurkat) turned out to be 99.7%.
Turning to `COCc1ccc([C@@H](NC(=O)N2CC[C@H](F)C2)C(=O)Nc2ccc([Si](C)(C)C)c(F)c2)cc1` [Example 96, (3S)-3-fluoro-N-((1R)-2-((3-fluoro-4-(trimethylsilyl)phenyl)amino)-1-(4-(methoxymethyl)phenyl)-2-oxoethyl)pyrrolidine-1-carboxamide], the values for the inhibition at 1 µM at RORγt [1] and at RORγt [2] were 91.2% and 98.6%, respectively. Besides, the inhibition at 3 µM at RORγt [3] (Jurkat) was found to be 99.5%.
For `COCc1ccc([C@@H](NC(=O)CCC#N)C(=O)Nc2cc(F)c([Si](C)(C)C)c(F)c2)cc1` [Example 73, 3-cyano-N-((1R)-2-((3,5-difluoro-4-(trimethylsilyl)phenyl)amino)-1-(4-(methoxymethyl)phenyl)-2-oxoethyl)propanamide], the inhibition at 1 µM at RORγt [1] was 96.7%; at RORγt [2], 103%. For the same compound, on RORγt [3] (Jurkat), the inhibition at 3 µM worked out at 97.9%.
On to `COCc1ccc(C(NC(=O)N2CCC(O)C2)C(=O)Nc2ccc([Si](C)(C)C)c(F)c2)cc1` (stereo not drawn) [Example 33, N-(2-((3-fluoro-4-(trimethylsilyl)phenyl)amino)-1-(4-(methoxymethyl)phenyl)-2-oxoethyl)-3-hydroxypyrrolidine-1-carboxamide], for which the inhibition at 1 µM at RORγt [1] stood at 97.7%; at RORγt [2] it was 101%. The inhibition at 3 µM on RORγt [3] (Jurkat) stood at 98.4%.
As for `COCc1ccc([C@@H](NC(=O)[C@H]2CNC(=O)C2)C(=O)Nc2cc(F)c([Si](C)(C)C)c(F)c2)cc1` [Example 68, (3R)—N-((1R)-2-((3,5-difluoro-4-(trimethylsilyl)phenyl)amino)-1-(4-(methoxymethyl)phenyl)-2-oxoethyl)-5-oxopyrrolidine-3-carboxamide], the inhibition at 1 µM at RORγt [1] turned out to be 96.2%; on RORγt [2], 101%. Moreover, the inhibition at 3 µM at RORγt [3] (Jurkat) stood at 98.7%.
For `COCc1ccc(C(NC(=O)Cc2cc(O)no2)C(=O)Nc2cc(F)c([Si](C)(C)C)c(F)c2)cc1` (stereo not drawn) [Example 39, N-(3,5-difluoro-4-(trimethylsilyl)phenyl)-2-(((3-hydroxy-1,2-oxazol-5-yl)acetyl)amino)-2-(4-(methoxymethyl)phenyl)acetamide], in that order: 99.6%, 103% and 100%.
For the compound `Cn1ncc2cc([C@@H](NC(=O)Cc3cc(O)no3)C(=O)Nc3cc(F)c(C(C)(C)C)c(F)c3)ccc21` [Example 419, (2R)-N-(4-tert-butyl-3,5-difluorophenyl)-2-(((3-hydroxy-1,2-oxazol-5-yl)acetyl)amino)-2-(1-methyl-1H-indazol-5-yl)acetamide], the figures for the inhibition at 1 µM on RORγt [1] and on RORγt [2] were 87% and 103%, respectively. On RORγt [3] (setting [4]), the inhibition at 3 µM was found to be 101%.
